The OPERA property sets (Mansouri et al. 2018)

Settings: for log10 BCF / log10 biotransformation half-life (days): fish

SMILES | melting point [°C] | boiling point [°C] | further results
CN(C)c1ccc([N+](=O)[O-])cc1 | 164 |  | log10 vapour pressure (mmHg): -5.22
Cc1cccnc1N | 33.5 | 222 | 
Cc1ccc(CCC=O)cc1 |  | 223 | 
CC(=O)CC(=O)c1ccccc1 | 56 | 262 | ready biodegradability: readily biodegradable
O=C(O)c1ccccc1-c1ccccc1C(=O)O | 234 |  | ready biodegradability: readily biodegradable
COc1cccc2cccnc12 | 49.5 | 283 | 
COc1ccc2cc3[n+](cc2c1OC)CCc1cc2c(cc1-3)OCO2 | 145 |  | 
COc1c(Cl)cc(Cl)c(Cl)c1Cl |  |  | log10 BCF: 3.34
N#CCc1ccc(Br)cc1 | 48 |  | 
O=C(Cl)C(=O)Cl | -16 | 63.5 | 
CCCCCCCCCCCS | -3 | 257 | 
ClC1=C(Cl)[C@]2(Cl)[C@H]3[C@H]([C@@H]4C=C[C@H]3C4)[C@@]1(Cl)C2(Cl)Cl (racemic) |  |  | log10 Henry constant (atm·m³/mol): -4.36; log10 Koa: 8.08; log10 Koc (L/kg): 4.69; log10 vapour pressure (mmHg): -3.92; log10 BCF: 3.74; log10 biotransformation half-life (days): 1.37
O=C(O)C(F)(F)F | -15.2 | 73 | log10 Henry constant (atm·m³/mol): -6.95; log10 vapour pressure (mmHg): 2.04
C[Si](C)(C)c1ccccc1 |  | 170 | 
CC(C)(C1CCCCC1)C1CCCCC1 | 15.6 | 286 | 
CCCC(C)C(C)CC (stereo unspecified) |  | 141 | 
Clc1cccc2cc3ccccc3cc12 | 83.5 |  | 
Clc1cc(Cl)c(-c2cc(Cl)c(Cl)c(Cl)c2Cl)c(Cl)c1 |  |  | log10 biotransformation half-life (days): 2.51
CC(Br)C(=O)c1ccccc1 (stereo unspecified) |  | 248 | 
Cc1cc2c(cc1C)C(=O)c1ccccc1C2=O | 211 |  | 
CCC(C)CC(C)C (stereo unspecified) |  | 110 | log10 biodegradation half-life (days): 0.845; log10 vapour pressure (mmHg): 1.48
CCS(=O)(=O)CCO | 46 |  | 
CC(C)(C)C(C)(C)C | 101 | 106 | log10 vapour pressure (mmHg): 1.32

SMILES | melting point [°C] | boiling point [°C] | further results
Nc1ccc(Nc2ccccc2)c2c1C(=O)c1ccccc1C2=O | 192 |  | 
CCCC(C)(C)C | -124 | 79.2 | log10 biodegradation half-life (days): 0.845; log10 vapour pressure (mmHg): 2.02
CCC(=O)Oc1ccccc1 | 20 | 211 | 
O=[N+]([O-])c1ccc(Nc2ccc(O)cc2)c([N+](=O)[O-])c1 | 194 |  | log10 vapour pressure (mmHg): -11.4
C=CP(=O)(O)O | 43 |  | 
FC1(F)C(F)(F)C(F)(F)C2(F)C(F)(C1(F)F)C(F)(F)C(F)(F)C1(F)C(F)(F)C(F)(F)C(F)(F)C(F)(F)C12F (stereo unspecified) | -20 | 210 | 
C#CCCCC | -132 | 71.3 | log10 vapour pressure (mmHg): 2.12
CCCCCCCCCCCCCCCCCCC(=O)O | 69.4 | 300 | 
CCOP(=S)(OCC)O/N=C(\C#N)c1ccccc1 | 6.1 |  | log10 vapour pressure (mmHg): -4.8; ready biodegradability: not readily biodegradable; log10 BCF: 2.91
CS(C)=O | 18.5 | 189 | log10 Henry constant (atm·m³/mol): -8.82; log10 Koa: 4.96; log10 vapour pressure (mmHg): -0.215; ready biodegradability: not readily biodegradable; log10 BCF: 0.6
C=C(CC)c1ccccc1 |  | 182 | 
CC(=O)Nc1ccc(OC(=O)c2ccccc2O)cc1 | 187 |  | 
CCOc1ccc(C=O)cc1OCC | 22 | 279 | 
Cc1ccc(C(=O)O)c(O)c1 | 177 |  | 
CCCCOC(=O)C(C)CC (stereo unspecified) |  | 179 | 
O=C(O)CNC(CO)(CO)CO | 187 |  | 
S=c1sccs1 | 49 |  | 
CCCCCCCCCCCCCCCC(N)=O | 107 |  | ready biodegradability: not readily biodegradable
CCc1cccc(C)c1N(C(=O)CCl)[C@@H](C)COC |  | 282 | 
C#C[C@]1(OC(C)=O)CC[C@H]2[C@@H]3CCC4=CC(=O)CC[C@@H]4[C@H]3CC[C@@]21C | 162 |  | 
O=C(Cl)c1ccc(F)cc1 | 9 |  | 
COC(=O)c1cc(Cl)cc(N)c1Cl |  |  | log10 Koc (L/kg): 2.74
